In PMC3025038 (Organic & biomolecular chemistry, 2009):

Tests used:
KOP receptors [1] = target: T1, KOP receptors (Homo sapiens, UniProt P41145); assay: biochemical; type: biochemical; settings: for Emax: read-out: KOP Emax
KOP receptors [2] = target: T1, KOP receptors; type: binding
[3] = mice; liver, spleen, kidney bone marrow, or brain tissue; cited from earlier work

T1 sequence (P41145 whole entry): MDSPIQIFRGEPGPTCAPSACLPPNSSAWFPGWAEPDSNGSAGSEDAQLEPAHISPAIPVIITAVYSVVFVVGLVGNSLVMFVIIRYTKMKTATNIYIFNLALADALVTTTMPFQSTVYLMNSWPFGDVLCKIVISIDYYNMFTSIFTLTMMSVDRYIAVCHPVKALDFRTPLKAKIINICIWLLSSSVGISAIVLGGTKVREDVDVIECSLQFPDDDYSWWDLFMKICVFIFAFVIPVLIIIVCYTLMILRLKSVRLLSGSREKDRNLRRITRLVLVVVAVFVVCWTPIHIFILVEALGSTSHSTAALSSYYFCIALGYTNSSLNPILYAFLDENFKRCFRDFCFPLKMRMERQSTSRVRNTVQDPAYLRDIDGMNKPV

Row | Compound | fold less active than 1 as agonists (KOP receptors [1]) | functional character at KOPs (in words) (KOP receptors [1]) | Emax (KOP receptors [1]) [%] | fold increase in affinity for KOP receptors (KOP receptors [2]) [fold] | histological differences versus control animals [3]
1 | COC(=O)[C@@H]1C[C@H](OC(C)=O)C(=O)[C@H]2[C@@]1(C)CC[C@H]1C(=O)O[C@H](C(=O)N3CCSCC3)C[C@]21C [Compound 23, (2S,4aR,6aR,7R,9S,10aS,10bR)-methyl 9-acetoxy-6a,10b-dimethyl-4,10-dioxo-2-(thiomorpholine-4-carbonyl)dodecahydro-1H-benzo[f]isochromene-7-carboxylate] | approximately 100 fold | selective partial agonists | 57 ± 6 |  | 
2 | COC(=O)[C@@H]1C[C@H](OC(C)=O)C(=O)[C@H]2[C@@]1(C)CC[C@H]1C(=O)O[C@H](C(=O)N3CCCCC3)C[C@]21C [Compound 21, (2S,4aR,6aR,7R,9S,10aS,10bR)-methyl 9-acetoxy-6a,10b-dimethyl-4,10-dioxo-2-(piperidine-1-carbonyl)dodecahydro-1H-benzo[f]isochromene-7-carboxylate] | approximately 100 fold | selective partial agonists | 85 ± 13 | 9 | 
3 | COC(=O)[C@@H]1C[C@H](OC(C)=O)C(=O)[C@H]2[C@@]1(C)CC[C@H]1C(=O)O[C@H](c3ccoc3)C[C@]21C [Compound 1, salvinorin A] |  |  |  |  | no histological differences
